ChEMBL document CHEMBL1201862, “PubChem BioAssay data set” (2004)
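Interpolation was linear, between the two tested concentrations surrounding the appropriate level; five concentrations were tested over 48 hours in 96-well plates. GI50 marks 50% less growth.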 Active and inactive are the calls of the source. No stated cut-off is given here; in the data, active = GI50 up to about 1.1 µM and inactive = higher.

How the values were obtained:
Experiment in all cases: growth of human tumour cells (NCI), 48 h
ACHN = tested on: ACHN
HOP-62 = tested on: HOP-62
HCT-15 = tested on: HCT-15
DMS-114 = tested on: DMS-114
UO-31 = tested on: UO-31
A549 = tested on: A549
SNB-75 = tested on: SNB-75
KM-20L2 = tested on: KM-20L2
SK-OV-3 = tested on: SK-OV-3
SK-MEL-2 = tested on: SK-MEL-2
SNB-19 = tested on: SNB-19
M14 = tested on: M14
HOP-18 = tested on: HOP-18
K562 = tested on: K562
RPMI-8226 = tested on: RPMI-8226
NCI-H522 = tested on: NCI-H522
RXF 393 = tested on: RXF 393
SR = tested on: SR
MDA-MB-231 = tested on: MDA-MB-231
HOP-92 = tested on: HOP-92

Measured: GI50

CN1CCN(CCCN2c3ccccc3Sc3ccc(C(F)(F)F)cc32)CC1
7.1 µM: HCT-15
inactive: ACHN 11.9 µM | HOP-62 13.1 µM | DMS-114 10 µM | UO-31 5.21 µM | A549 12.6 µM | SNB-75 7.24 µM | KM-20L2 2.27 µM | SK-OV-3 14.6 µM | SK-MEL-2 7.93 µM | SNB-19 15.2 µM | M14 1.88 µM | HOP-18 9.89 µM

CC1C(=O)C(C)C(c2ccccc2)N(N=O)C1c1ccccc1 (configuration not stated)
> 100 µM: HCT-15
inactive: K562 > 883 µM | ACHN 143 µM | HOP-62 41.8 µM | RPMI-8226 > 724 µM | NCI-H522 > 78.3 µM | UO-31 > 21.1 µM | A549 207 µM | SNB-75 34 µM | RXF 393 36.9 µM | KM-20L2 > 1000 µM | SK-OV-3 37.2 µM | SK-MEL-2 224 µM | SR > 439 µM | MDA-MB-231 85.3 µM | SNB-19 64.4 µM | M14 283 µM | HOP-18 > 100 µM | HOP-92 24.9 µM

NCc1c(C(N)=O)ncn1Cc1ccccc1
> 100 µM: HCT-15
inactive: K562 > 100 µM | ACHN > 100 µM | HOP-62 > 100 µM | RPMI-8226 > 100 µM | DMS-114 > 100 µM | A549 > 100 µM | SNB-75 > 100 µM | RXF 393 > 100 µM | KM-20L2 > 100 µM | SK-OV-3 > 100 µM | SNB-19 > 100 µM | M14 > 100 µM | HOP-18 > 100 µM | HOP-92 65.9 µM

Nc1nc(N)c(-c2ccccc2)c(C(=O)Nc2nccs2)n1
> 100 µM: HCT-15
inactive: K562 > 100 µM | ACHN > 100 µM | HOP-62 > 100 µM | DMS-114 > 100 µM | UO-31 > 100 µM | A549 > 100 µM | RXF 393 > 100 µM | KM-20L2 > 100 µM | SK-OV-3 > 100 µM | SK-MEL-2 > 100 µM | SNB-19 > 100 µM | M14 > 100 µM | HOP-18 > 100 µM | HOP-92 > 100 µM

CCCCCCCCCCCCC/C=C1\C[C@H](O)COC1=O
16.5 µM: HCT-15
inactive: K562 15.9 µM | ACHN 15.9 µM | HOP-62 16.6 µM | RPMI-8226 17.5 µM | NCI-H522 17.1 µM | UO-31 18.6 µM | A549 19.5 µM | SNB-75 15.9 µM | RXF 393 20 µM | KM-20L2 16.9 µM | SK-OV-3 20.8 µM | SK-MEL-2 16.6 µM | SR 18.6 µM | SNB-19 18.9 µM | M14 15 µM | HOP-18 17.4 µM | HOP-92 11.6 µM

COc1ccc(/C=C/C(=O)C(C)(C)CN2CCCCC2)cc1
inactive: K562 24.2 µM | ACHN 24.4 µM | HOP-62 32.2 µM | RPMI-8226 18.2 µM | NCI-H522 14 µM | DMS-114 15 µM | UO-31 17.7 µM | A549 26.8 µM | SNB-75 12.4 µM | RXF 393 21.3 µM | KM-20L2 20.2 µM | SK-OV-3 21.5 µM | SK-MEL-2 16.3 µM | SNB-19 57.7 µM | M14 18.2 µM | HOP-18 16.9 µM
16.3 µM: HCT-15

O=C(/C=C\c1cccc2ccccc12)c1ccc(Cl)cc1Cl
13.7 µM: HCT-15
inactive: K562 18.9 µM | ACHN 18.6 µM | HOP-62 > 100 µM | RPMI-8226 18 µM | NCI-H522 19.2 µM | DMS-114 14.8 µM | UO-31 53 µM | A549 62.1 µM | SNB-75 > 100 µM | KM-20L2 31 µM | SK-OV-3 > 100 µM | SNB-19 28.8 µM | M14 19.4 µM | HOP-18 22.8 µM
